Source: patent publication US20230285405A1, “Pharmaceuticals for Treating or Preventing Nidoviruses and Picornaviruses” (priority 2020, published 2023)
Where a name gives a salt, the structure may show the parent alone. Read-outs that look alike come from different tables or passages of the source.

Experiments:
OC43 [1] = experiment: Drug screening: OC43 nucleoprotein staining in infected A549-mRuby cells; assay type: cell-based, human beta coronavirus OC43; settings: for activity at 10 µM: Betacoronavirus 1, OC43, 96 h
Method in brief: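 A549 cells expressing H2B-mRuby infected with OC43 at MOI 0.3 for 1 h at 33° C, then drugs added at 10 μM final and incubated 4 days at 33° C. Viral nucleoprotein immunostained and imaged; intensity normalized to cell number and no-drug controls (=100). Hits reduced staining >3 SD in both repeats without toxicity.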

A549-mRuby cells = experiment: Drug screening: effect on cell growth (cell number day 4 / day 0); settings: 10 μM drug; for Growth_1: number of cells at day 4 divided by number of cells at day 0 / toxic_1: repeat #1; for Growth_2: number of cells at day 4 divided by number of cells at day 0 / toxic_2: repeat #2
Method in brief: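 A549 cells carrying an H2B-mRuby reporter were infected with OC43 at MOI 0.3 for 1 h at 33° C, then given drug at 10 μM final. Cell numbers were counted by imaging at day 0 and again at day 4 after 4 days at 33° C, 5% CO2, with the screen run twice.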

OC43 [2] = experiment: Dose-response analysis of OC43 infection; assay type: cell-based, human beta coronavirus OC43
Method: Dose-response analysis of OC43 infection was done similarly to the drug screening, except cells were seeded at a concentration of 5,000 cells per well and the media contained 2% BCS instead of 10% BCS. OC43 staining was performed 2 days after infection and analyzed similarly to what was described for the drug screening. A sigmoid fit was used to extract EC50 values using Matlab.

SARS-CoV-2 = experiment: microbe, parasite or virus in culture; assay type: cell-based, SARS-CoV-2 (nCoV/Washington/1/2020); settings: read-out: EC50 SARS2
[3] = 10 μM drug, MOI 0.3, 4 days, normalized to no-drug controls in the same plate, repeat #1, read-out: OC43_1: % staining of OC43 in screen repeat #1
[4] = 10 μM drug, MOI 0.3, 4 days, normalized to no-drug controls in the same plate, repeat #2, read-out: OC43_2: % staining of OC43 in screen repeat #2
[5] = 10 μM drug, MOI 0.3, 4 days, OC43 staining normalized to no-drug controls, mean of the two screen repeats, read-out: OC43_mean

Compound | hit_1 (OC43 [1]; 10 μM drug, repeat #1) | hit_2 (OC43 [1]; 10 μM drug, repeat #2) | activity at 10 µM (OC43 [1]; [3]) [%] | activity at 10 µM (OC43 [1]; [4]) [%] | activity at 10 µM (OC43 [1]; read-out: OC43_mean) [%] | Growth_1: number of cells at day 4 divided by number of cells at day 0 (A549-mRuby cells) | toxic_1 (A549-mRuby cells) | Growth_2: number of cells at day 4 divided by number of cells at day 0 (A549-mRuby cells) | toxic_2 (A549-mRuby cells) | activity at 10 µM (OC43 [1]; [5]) [%] | further results
OCc1cc(C(O)CNCCCCCCOCCCCc2ccccc2)ccc1O (stereo not shown) [Salmeterol Xinafoate] | 1 | 1 | 39.3 | 20.4 | 29.9 | 2.9 | 0 | 2.5 | 0 | – | –
OCCN1CCN(CC/C=C2/c3ccccc3Sc3ccc(C(F)(F)F)cc32)CC1 [Flupenthixol dihydrochloride] | – | – | – | – | – | – | – | – | – | – | EC50 (OC43 [2]; read-out: EC50 OC43): 1800 nM; EC50 (SARS-CoV-2): 560 nM
COc1cc2c(cc1OC)CN(CCc1ccc(NC(=O)c3cccc4c(=O)c5cccc(OC)c5[nH]c34)cc1)CC2 [Elacridar (GF120918), Elacridar] | 1 | 1 | 24.4 | 38.3 | – | 4.6 | 0 | 5.8 | 0 | 31.4 | –
OCCOCCN1CCN(C2=Nc3ccccc3Sc3ccccc32)CC1 [Quetiapine Fumarate] | – | – | – | – | 48 | 3.6 | 0 | 3.7 | 0 | – | hit_1 (OC43 [1]): 1; hit_2 (OC43 [1]): 1; activity at 10 µM (OC43 [1]; read-out: OC43_1: % staining of OC43 in screen repeat #1): 34.5%; activity at 10 µM (OC43 [1]; read-out: OC43_2: % staining of OC43 in screen repeat #2): 61.5%
Dimemorfan phosphate | 1 | 1 | – | – | – | 6.0 | 0 | 5.4 | 0 | – | OC43_mean (OC43 [1]): 33.0%; OC43_1: % staining of OC43 in screen repeat #1 (OC43 [1]; 10 μM drug, MOI 0.3, 4 days, normalized to no-drug controls in the same plate, repeat #1): 39.7%; OC43_2: % staining of OC43 in screen repeat #2 (OC43 [1]; 10 μM drug, MOI 0.3, 4 days, normalized to no-drug controls in the same plate, repeat #2): 26.2%
CN(C)CCCN1c2ccccc2CCc2ccccc21.O [Imipramine HCl] | 1 | 1 | 6.7 | 22.3 | – | 4.0 | 0 | 4.2 | 0 | – | activity at 10 µM (OC43 [1]; read-out: OC43_mean, 10 μM drug, MOI 0.3, 4 days, OC43 staining normalized to no-drug controls, mean of the two screen repeats): 14.5%; EC50 (OC43 [2]; Betacoronavirus 1, OC43, 48 h, read-out: EC50 OC43, A549-mRuby cells, staining 2 days after infection): 6000 nM
CCN(CC)CCCC(C)Nc1ccnc2cc(Cl)ccc12 (stereo not shown) [Chloroquine Phosphate] | 1 | 1 | 11.3 | 13.1 | 12.2 | – | 0 | – | 0 | – | –
COc1cccc(CCc2ccccc2OCC(CN(C)C)OC(=O)CCC(=O)O)c1 (stereo not shown) [Sarpogrelate hydrochloride] | 1 | 1 | 26.8 | 24.9 | – | 5.0 | 0 | 5.4 | 0 | 25.9 | –
CCN(CCCc1ccccc1)CCCc1ccccc1 [Alverine Citrate] | 1 | 1 | 22.1 | 35.3 | 28.7 | 3.7 | 0 | 4.0 | 0 | – | –
CCCC1O[C@@H]2C[C@H]3[C@@H]4CCC5=CC(=O)C=C[C@]5(C)[C@H]4[C@@H](O)C[C@]3(C)[C@]2(C(=O)CO)O1 (stereo partly shown) [Budesonide] | 1 | 1 | 20.8 | 36.9 | – | 3.9 | 0 | 4.0 | 0 | 28.8 | –
